Experimental data from patent publication US8008291B2 (Mimetica Pty Ltd, priority 2008, dated 2011).
Like-named read-outs stand apart in the source and are kept apart here. Values belong to the compound of their own block, whether it stands above or below them.

Columns and labels:
hMC4R = hMC4R (Homo sapiens, UniProt P32245); assay: Human MC4R radioligand binding assay; conditions: hMCR binding selectivity, [125I] NDP-MSH, membranes
Protocol: (§1) • Na^125I (0.5 mCi, 17.4 Ci/mg) was added to 50 μL sodium phosphate (50 mM, pH7.4) in an eppendorf tube precoated with IODOGEN. After incubation for 10 mins the phosphate buffer containing the iodine was added to NDP-MSH (10 ul at 1 mg/mL) in a separate eppendorf tube. This was incubated for a further 10 mins. The iodinated NDP-MSH was purified by HPLC on a Zorbax SB 300 column using solvent A: 0.05% TFA and solvent B: 90% acetonitrile 0.045% TFA with a linear gradient, 0-67% B over 60 mins. […] Resuspended membranes were kept on ice until they were added to the wells of the plate. Binding Protocol for 400 microassays per vial: • Assays were performed in 96 well polypropylene plates. […] This was incubated for 1 hr at 37° C.
(§2) Radioligand binding assays were carried out using commercial or in-house prepared hMC1R, hMC3R and hMC4R membranes and [125I]
(§3) The homogenisation and ice incubation was repeated three times. The mixture was then centrifuged at 1260×g for 5 mins. […] This was centrifuged at 30,000×g for 90 mins at 4° C.

hMC1R = hMC1R (Homo sapiens, UniProt Q01726); assay: Human MC1R radioligand binding assay; conditions: hMCR binding selectivity, [125I] NDP-MSH, membranes
hMC1R, sequence (Q01726 whole entry): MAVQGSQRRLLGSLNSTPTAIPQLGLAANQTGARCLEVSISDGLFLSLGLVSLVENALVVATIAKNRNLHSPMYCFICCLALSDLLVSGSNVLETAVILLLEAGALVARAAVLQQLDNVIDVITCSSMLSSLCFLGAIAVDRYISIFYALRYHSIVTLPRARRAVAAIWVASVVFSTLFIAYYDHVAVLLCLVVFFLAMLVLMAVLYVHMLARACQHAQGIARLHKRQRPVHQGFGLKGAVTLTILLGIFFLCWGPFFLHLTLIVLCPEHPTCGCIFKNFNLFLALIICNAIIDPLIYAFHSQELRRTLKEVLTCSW
Protocol: as §1, §2, §3

hMC3R = hMC3R (Homo sapiens, UniProt P41968); assay: Human MC3R radioligand binding assay; conditions: hMCR binding selectivity, [125I] NDP-MSH, membranes
hMC3R, sequence (P41968 whole entry): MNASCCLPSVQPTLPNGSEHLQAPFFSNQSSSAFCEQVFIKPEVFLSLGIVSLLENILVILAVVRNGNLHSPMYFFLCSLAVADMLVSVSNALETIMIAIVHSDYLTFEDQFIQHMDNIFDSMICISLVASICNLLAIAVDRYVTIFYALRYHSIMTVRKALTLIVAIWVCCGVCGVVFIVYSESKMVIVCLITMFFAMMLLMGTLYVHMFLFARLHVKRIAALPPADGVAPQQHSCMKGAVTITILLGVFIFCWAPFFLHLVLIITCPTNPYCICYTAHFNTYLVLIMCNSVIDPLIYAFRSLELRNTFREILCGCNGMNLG
Protocol: as §1, §2, §3

sebum excretion = conditions: oral, after 8-12 weeks of therapy; cited from earlier work
mouse MC5R (membrane) = biological target: T1, mouse MC5R (membrane) (Mus musculus, UniProt P41149); assay: MC5R radioligand binding, mouse MC5R membranes
T1 construct: purchased Euroscreen
T1 sequence (P41149 whole entry): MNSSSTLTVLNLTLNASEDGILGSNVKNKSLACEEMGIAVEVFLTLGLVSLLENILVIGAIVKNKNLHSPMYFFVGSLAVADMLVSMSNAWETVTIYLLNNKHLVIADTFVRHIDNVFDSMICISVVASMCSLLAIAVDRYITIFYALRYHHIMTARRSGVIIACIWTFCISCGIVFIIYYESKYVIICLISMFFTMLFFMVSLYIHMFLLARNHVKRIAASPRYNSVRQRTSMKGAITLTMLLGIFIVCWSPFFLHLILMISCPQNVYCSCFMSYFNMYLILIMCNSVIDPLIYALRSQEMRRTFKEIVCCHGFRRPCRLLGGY

[1] = biological target: T2, rhesus monkey MC5R (whole cells) (Macaca mulatta, UniProt A0A5F8AEA9); assay: MC5R radioligand binding, rhesus monkey MC5R whole cells
T2 construct: expressed in transfected cells
T2 sequence (A0A5F8AEA9 1-325): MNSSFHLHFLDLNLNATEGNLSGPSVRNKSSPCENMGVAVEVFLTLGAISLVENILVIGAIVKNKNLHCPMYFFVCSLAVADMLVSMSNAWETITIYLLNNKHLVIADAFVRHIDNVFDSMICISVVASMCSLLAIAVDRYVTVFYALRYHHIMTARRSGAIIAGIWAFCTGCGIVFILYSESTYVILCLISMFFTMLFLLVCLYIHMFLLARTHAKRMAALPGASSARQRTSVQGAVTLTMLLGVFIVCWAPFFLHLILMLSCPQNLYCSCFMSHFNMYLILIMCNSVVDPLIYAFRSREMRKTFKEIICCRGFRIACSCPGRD

[2] = biological target: T3, rhesus monkey MC5R (membranes) (Macaca mulatta, UniProt A0A5F8AEA9); assay: MC5R radioligand binding, rhesus monkey MC5R membranes
T3 construct: expressed in transfected cells
T3 sequence (A0A5F8AEA9 1-325): as above

human MC5R [3] = biological target: T4, human MC5R (Homo sapiens, UniProt P33032); assay: cAMP stimulation assay, agonism, HEK 293 cells expressing human MC5R; assay type: cell-based
T4 construct: host or cells: HEK 293
T4 sequence (P33032 whole entry): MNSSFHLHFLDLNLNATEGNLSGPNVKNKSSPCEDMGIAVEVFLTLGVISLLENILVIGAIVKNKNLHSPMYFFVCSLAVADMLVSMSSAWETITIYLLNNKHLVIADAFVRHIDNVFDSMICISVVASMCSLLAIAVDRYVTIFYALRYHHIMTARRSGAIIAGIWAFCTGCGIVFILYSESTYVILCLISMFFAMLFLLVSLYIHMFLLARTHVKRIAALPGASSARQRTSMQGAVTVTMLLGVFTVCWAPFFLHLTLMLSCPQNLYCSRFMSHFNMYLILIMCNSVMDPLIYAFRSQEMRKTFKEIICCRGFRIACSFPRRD
Protocol: (§4) The mammalian cell line, human embryonic kidney cells (HEK 293), were maintained in Dulbeccos Modified Eagle's medium (DMEM) with 5% fetal bovine serum (BSA), L-glutamine, high glucose and antibiotics/antimycotics. On the day prior to transfection, cells were passaged using trypsin/EDTA and seeded into 75 cm^2 flasks so that they would be approximately 90% confluent the next day. The next day, the cell media was replaced with fresh antibiotic/antimycotic-containing DMEM. Approximately 100 μl of the transfection lipid Turbofectin 8.0 (Origene Technologies, MD, USA), was diluted in 1.0 mL of serum and antibiotic/antimycotic-free OptiMEM in a sterile 15 mL tube and incubated for 5 mins at room temperature. […]
(§5) Basal level (of cAMP) control wells contained stimulation buffer only (no agonist or compounds). […] After incubation, 10 μl of lysis buffer (10% Tween 20, 1 M HEPES, 0.1% BSA, protease inhibitors, ddH2O) was added to all wells to be measured. […] 5 μl of diluted acceptor beads were added to each well to be measured, then the plate was incubated for 30 mins at room temperature, in the dark, with gentle shaking. […] Plates were read on an Envision plate reader (Perkin Elmer) after 1 hr and ˜16hrs incubation. cAMP concentration in the cells was determined by the use of a ‘standard curve’ generated from the output of known cAMP concentrations as described below. […]

human MC5R [4] = biological target: T4, human MC5R; assay: cAMP assay, antagonism of alpha-MSH, HEK 293 cells expressing human MC5R; assay type: cell-based; conditions: antagonism of 10^−6 M alpha-MSH
Protocol: as §4, §5

human MC5R (hMC5R) = biological target: T5, human MC5R (hMC5R) (Homo sapiens, UniProt P33032); assay: Human MC5R radioligand binding assay (membranes, [125I] NDP-MSH displacement)
T5 construct: purchased Perkin Elmer RBXMC5M400UA
T5 sequence (P33032 whole entry): as above
Procedure, shortened: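 Frozen human MC5R membranes incubated with test compound and in-house iodogen-labeled, HPLC-purified [125I]NDP-MSH for 1 hr at 37° C. Binding measured as displacement of the radioligand.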

hMC4R, sequence (P32245 whole entry): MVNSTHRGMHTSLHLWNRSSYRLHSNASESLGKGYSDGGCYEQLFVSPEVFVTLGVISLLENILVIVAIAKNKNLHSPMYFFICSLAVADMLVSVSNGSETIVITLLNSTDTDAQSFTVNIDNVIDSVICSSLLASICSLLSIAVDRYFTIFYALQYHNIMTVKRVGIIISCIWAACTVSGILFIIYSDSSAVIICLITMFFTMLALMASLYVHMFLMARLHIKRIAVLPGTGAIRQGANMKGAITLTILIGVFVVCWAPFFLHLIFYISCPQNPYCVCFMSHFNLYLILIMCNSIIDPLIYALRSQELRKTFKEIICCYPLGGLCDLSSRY

IC50 (hMC4R): 6.06 µM
IC50 (hMC1R): 2.85 µM
IC50 (hMC3R): 1.5 µM
Compound: O=C(/C=C/c1ccc(Cl)cc1)NC[C@@H]1CCN(CC(c2ccccc2)c2ccccc2)C(=O)[C@H](CCN2CCCCC2)N1 [Compound 33, (E)-3-(4-chlorophenyl)-N-(((3S,5S)-1-(2,2-diphenylethyl)-2-oxo-3-(2-(piperidin-1-yl)ethyl)-1,4-diazepan-5-yl)methyl)acrylamide]

Compound: CC1=C(/C=C/C(C)=C/C=C/C(C)=C\C(=O)O)C(C)(C)CCC1 [isotretinoin]
reduction of sebum excretion (sebum excretion): up to 90%

IC50 (hMC4R): 3.28 µM
IC50 (hMC1R): 6.66 µM
IC50 (mouse MC5R (membrane)): 4 µM
IC50 [1]: 3 µM
IC50 [2]: 6.03 µM
Compound: N=C(N)NCCC[C@@H]1N[C@H](CNC(=O)c2ccc3ccccc3c2)CCN(CC(c2ccccc2)c2ccccc2)C1=O [Compound 105, N-(((3S,5S)-1-(2,2-diphenylethyl)-3-(3-guanidinopropyl)-2-oxo-1,4-diazepan-5-yl)methyl)-2-naphthamide]

EC50 (human MC5R [3]): > 10 µM
IC50 (human MC5R [4]): 0.094 µM
IC50 (hMC3R): 1.83 µM
IC50 (human MC5R (hMC5R); hMC5R binding, tested as trifluoroacetate or hydrochloride salts, or free bases, read-out: MC5R radioligand IC50): < 1 µM
IC50 (human MC5R (hMC5R); hMCR binding selectivity, [125I] NDP-MSH, membranes, read-out: human MC5R IC50): 0.15 µM
Compound: CCC(CC)CN1CC[C@@H](CNC(=O)/C=C/c2ccc(Cl)cc2)N[C@@H](CCN2CCCCC2)C1=O [Compound 331, (E)-3-(4-chlorophenyl)-N-(((3S,5S)-1-(2-ethylbutyl)-2-oxo-3-(2-(piperidin-1-yl)ethyl)-1,4-diazepan-5-yl)methyl)acrylamide]
